One data set concerns P-388 leukemia cells. In words: Antitumor activity: P-388 leukemia cells inoculated intraperitoneally, drug administered intravenously, BDF1 mice. The data set is classed as in vivo. The note with it: Mus musculus, P388, iv, BDF1 mice, P-388 i.p., read-out: T/C (%) of MST; for response vs control in vivo at 20 mg/kg: dose b: 20 mg/kg × 3, i.v. on days 1, 5 and 9; for response vs control in vivo at 40 mg/kg: dose c: 40 mg/kg × 3, i.v. on days 1, 5 and 9; for response vs control in vivo at 80 mg/kg: dose f: 80 mg/kg × 3, i.v. on days 1, 5 and 9; for response vs control in vivo at 60 mg/kg: dose e: 60 mg/kg × 3, i.v. on days 1, 5 and 9. The gist of the method: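 Drug dosing was intravenous on the first, fifth and ninth days after intraperitoneal inoculation of P-388 leukemia cells (1×10^6 per mouse) into BDF1 mice. Vehicles were physiological saline alone, or saline with small amounts of sodium carboxymethyl cellulose or Tween-80.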

Data set [1] in a line: Acute toxicity, intravenous (once), ddY mice. The format is in vivo. The note with it: mouse, in vivo, iv, formulated per Preparation Example. The text has this: In Table 7 are shown acute toxicity values (LD50, mg/kg) in ddY mice in the case of intravenously administering (once) each of the compounds of this invention in the form of preparations shown in the Preparation Examples shown in Table 7.

Counter-ions that a name gives are not always drawn.

Turning to `COC1C(O)C(C)OC(OC2C(Oc3cccc4c(OC(=O)COC(=O)c5ccccc5)c5c(=O)oc6ccc(C)c7c(=O)oc(c34)c5c67)OC(C)C3OC(c4ccccc4)OC32)C1O` (stereo not shown) [Compound No. 167], the response vs control in vivo at 20 mg/kg with P-388 leukemia cells is 198%. Also, in data set [1], the LD50 is no less than 40 mg/kg.

`COC1C(O)C(C)OC(OC2C(Oc3cccc4c(OC(=O)C(C)CNC(C)C)c5c(=O)oc6ccc(C)c7c(=O)oc(c34)c5c67)OC(C)C3OC(c4ccccc4)OC32)C1O` (stereo not drawn) [Compound No. 2, 6-O-(N-Isopropyl-β-Amino-Isobutyryl)-3',4'-O-Benzylidene-Chartreusin Hydrochloride]: in the data set on P-388 leukemia cells, the response vs control in vivo at 20 mg/kg was 184% and the response vs control in vivo at 40 mg/kg amounted to 216%. In addition, in data set [1], the LD50 was no less than 40 mg/kg.

`COC1C(O)C(C)OC(OC2C(Oc3cccc4c(OC(=O)CCSC)c5c(=O)oc6ccc(C)c7c(=O)oc(c34)c5c67)OC(C)C3OC(c4ccccc4)OC32)C1O` (stereo not shown) [Compound No. 152]: in the data set with P-388 leukemia cells, the response vs control in vivo at 20 mg/kg was found to be 157% and the response vs control in vivo at 40 mg/kg was determined as 210%. For the same compound, in data set [1], the LD50 is no less than 40 mg/kg.

On to `C=CCCC(=O)Oc1c2cccc(OC3OC(C)C4OC(c5cccc([N+](=O)[O-])c5)OC4C3OC3OC(C)C(O)C(OC)C3O)c2c2oc(=O)c3c(C)ccc4oc(=O)c1c2c43` (stereo not shown) [Compound No. 160], for which, in the data set with P-388 leukemia cells, the response vs control in vivo at 40 mg/kg worked out at 160% and the response vs control in vivo at 80 mg/kg turned out to be 218%. For the same compound, the 50% lethal dose (LD50) in data set [1] was no less than 80 mg/kg.

For `CO[C@H]1[C@@H](O)[C@@H](C)O[C@H](O[C@H]2[C@H](Oc3cccc4c(OC(=O)C5CC5C)c5c(=O)oc6ccc(C)c7c(=O)oc(c34)c5c67)O[C@H](C)[C@@H]3OC(c4ccc(Cl)cc4)O[C@@H]32)[C@@H]1O` (stereo partly shown) [Compound No. 190], in the data set on P-388 leukemia cells, the response vs control in vivo at 40 mg/kg was found to be 145% and the response vs control in vivo at 80 mg/kg was determined as 208%. The compound also showed an LD50 in data set [1] of no less than 80 mg/kg.

`COC1C(O)C(C)OC(OC2C(Oc3cccc4c(OC(=O)CCCCCN)c5c(=O)oc6ccc(C)c7c(=O)oc(c34)c5c67)OC(C)C3OC(c4ccccc4)OC32)C1O` (stereo not shown) [Compound No. 19]: in the data set on P-388 leukemia cells, the response vs control in vivo at 20 mg/kg worked out at 184% and the response vs control in vivo at 40 mg/kg is 233%. This compound yielded an LD50 in data set [1] of no less than 40 mg/kg.

As to `COC1C(O)C(C)OC(OC2C(Oc3cccc4c(OC(=O)CCNC(=O)CNC(=O)OCc5ccccc5)c5c(=O)oc6ccc(C)c7c(=O)oc(c34)c5c67)OC(C)C3OC(c4cccc(F)c4)OC32)C1O` (stereo not shown) [Compound No. 61], in the data set on P-388 leukemia cells, the response vs control in vivo at 20 mg/kg was determined as 176% and the response vs control in vivo at 40 mg/kg was found to be 220%. For the same compound, the LD50 in data set [1] is no less than 40 mg/kg.

`COC1C(O)C(C)OC(OC2C(Oc3cccc4c(OC(=O)CSc5ccccc5)c5c(=O)oc6ccc(C)c7c(=O)oc(c34)c5c67)OC(C)C3OC(C)(C)OC32)C1O` (stereo not shown) [Compound No. 174]: in the data set on P-388 leukemia cells, the response vs control in vivo at 40 mg/kg came to 148% and the response vs control in vivo at 80 mg/kg stood at 198%. Further, the LD50 in data set [1] is no less than 80 mg/kg.

Regarding `COC1C(O)C(C)OC(OC2C(Oc3cccc4c(OC(=O)C(C)CNC(=O)CNC(=O)OCc5ccccc5)c5c(=O)oc6ccc(C)c7c(=O)oc(c34)c5c67)OC(C)C3OC(c4ccccc4)OC32)C1O` (stereo not shown) [compound 74], in the data set on P-388 leukemia cells, the response vs control in vivo at 20 mg/kg turned out to be 186%. Besides, the LD50 in data set [1] is no less than 40 mg/kg.

As for `CCCCC(CC)C(=O)Oc1c2cccc(OC3OC(C)C4OC(C)(C)OC4C3OC3OC(C)C(O)C(OC)C3O)c2c2oc(=O)c3c(C)ccc4oc(=O)c1c2c43` (stereo not shown) [compound 239], the response vs control in vivo at 60 mg/kg with P-388 leukemia cells came to 153%. Also, the LD50 in data set [1] is no less than 60 mg/kg.

Take `COC1C(O)C(C)OC(OC2C(Oc3cccc4c(OC(=O)CCNC=O)c5c(=O)oc6ccc(C)c7c(=O)oc(c34)c5c67)OC(C)C3OC(c4ccco4)OC32)C1O` (stereo not shown) [compound 84]: in the data set with P-388 leukemia cells, the response vs control in vivo at 40 mg/kg stood at 145% and the response vs control in vivo at 80 mg/kg amounted to 208%. Moreover, the LD50 in data set [1] is no less than 80 mg/kg.

On to `CCCC(=O)Oc1c2cccc(OC3OC(C)C4OC(c5ccccc5)OC4C3OC3OC(C)C(O)C(OC)C3O)c2c2oc(=O)c3c(C)ccc4oc(=O)c1c2c43` (stereo not shown) [Compound No. 191, 6-O-(n-Butyryl)-3',4'-O-Benzylidene-Chartreusin], for which the response vs control in vivo at 20 mg/kg in the data set with P-388 leukemia cells amounted to 155%. For the same compound, the LD50 in data set [1] was no less than 40 mg/kg.

With `COC1C(O)C(C)OC(OC2C(Oc3cccc4c(OC(=O)CCN)c5c(=O)oc6ccc(C)c7c(=O)oc(c34)c5c67)OC(C)C3OC(c4cccc(F)c4)OC32)C1O` (stereo not drawn) [Compound No. 16, 6-O-(β-alanyl)-3',4'-O-(m-fluorobenzylidene)-chartreusin phosphate], in the data set on P-388 leukemia cells, the response vs control in vivo at 20 mg/kg turned out to be 164% and the response vs control in vivo at 40 mg/kg turned out to be 242%. The compound also returned an LD50 in data set [1] of no less than 40 mg/kg.

On to `COC1C(O)C(C)OC(OC2C(Oc3cccc4c(OC(=O)CCNC=O)c5c(=O)oc6ccc(C)c7c(=O)oc(c34)c5c67)OC(C)C3OC(c4cccc(C(F)(F)F)c4)OC32)C1O` (stereo not shown) [Compound No. 52], for which, in the data set with P-388 leukemia cells, the response vs control in vivo at 40 mg/kg was found to be 162% and the response vs control in vivo at 80 mg/kg was found to be 203%. In data set [1], this compound registered an LD50 of no less than 80 mg/kg.

On to `COC1C(O)C(C)OC(OC2C(Oc3cccc4c(OC(=O)C(Cc5c[nH]c6ccccc56)NC(=O)OCc5ccccc5)c5c(=O)oc6ccc(C)c7c(=O)oc(c34)c5c67)OC(C)C3OC(C)(C)OC32)C1O` (stereo not shown) [compound 126], for which the response vs control in vivo at 80 mg/kg in the data set with P-388 leukemia cells is 150%. In data set [1], this compound showed an LD50 of no less than 100 mg/kg.

Take `COC1C(O)C(C)OC(OC2C(Oc3cccc4c(OC(=O)C5CCCCC5NC(=O)C(F)(F)F)c5c(=O)oc6ccc(C)c7c(=O)oc(c34)c5c67)OC(C)C3OC(c4cccc(F)c4)OC32)C1O` (single isomer, unassigned) [Compound No. 27, 6-O-(N-Trifluoroacetyl-2-Amino-Cyclohexanecarbonyl)-3',4'-O-(m-Fluorobenzylidene)-Chartreusin]: the response vs control in vivo at 20 mg/kg with P-388 leukemia cells was 179%. This compound returned an LD50 in data set [1] of no less than 30 mg/kg.

On to `COC1C(O)C(C)OC(OC2C(Oc3cccc4c(OC(C)=O)c5c(=O)oc6ccc(C)c7c(=O)oc(c34)c5c67)OC(C)C3OC(C)(C)OC32)C1O` (stereo not shown) [Compound No. 203, 6-O-Acetyl-3',4'-O-Isopropylidene-Chartreusin], for which, in the data set on P-388 leukemia cells, the response vs control in vivo at 60 mg/kg was 180%. Moreover, the LD50 in data set [1] was no less than 60 mg/kg.

Take `COC1C(O)C(C)OC(OC2C(Oc3cccc4c(OC(=O)CCCCCNC(=O)C(F)(F)F)c5c(=O)oc6ccc(C)c7c(=O)oc(c34)c5c67)OC(C)C3OC(CC(C)=O)OC32)C1O` (stereo not shown) [compound 130]: the response vs control in vivo at 160 mg/kg in the data set on P-388 leukemia cells (dose i: 160 mg/kg × 3, i.v. on days 1, 5 and 9) was determined as 141%. In data set [1], this compound returned an LD50 of no less than 180 mg/kg.

On to `COC1C(O)C(C)OC(OC2C(Oc3cccc4c(OC(=O)CCNC(=O)C(F)(F)F)c5c(=O)oc6ccc(C)c7c(=O)oc(c34)c5c67)OC(C)C3OC4(CCCCC4)OC32)C1O` (stereo not shown) [compound 132], for which, in the data set with P-388 leukemia cells, the response vs control in vivo at 40 mg/kg came out at 136% and the response vs control in vivo at 80 mg/kg came out at 146%. In data set [1], this compound yielded an LD50 of no less than 100 mg/kg.

Turning to `CO[C@H]1[C@@H](O)[C@@H](C)O[C@H](O[C@H]2[C@H](Oc3cccc4c(OC(=O)c5ccc(C#N)cc5)c5c(=O)oc6ccc(C)c7c(=O)oc(c34)c5c67)O[C@H](C)[C@@H]3OC(c4ccccc4Cl)O[C@@H]32)[C@@H]1O` (stereo partly shown) [Compound No. 187], in the data set on P-388 leukemia cells, the response vs control in vivo at 40 mg/kg was 130% and the response vs control in vivo at 80 mg/kg is 216%. In data set [1], this compound showed an LD50 of no less than 80 mg/kg.

As to `COC1C(O)C(C)OC(OC2C(Oc3cccc4c(OC(=O)C(CCSC)NC(=O)OCc5ccccc5)c5c(=O)oc6ccc(C)c7c(=O)oc(c34)c5c67)OC(C)C3OC(C)(C)OC32)C1O` (stereo not shown) [Compound No. 63], the response vs control in vivo at 50 mg/kg with P-388 leukemia cells (dose d: 50 mg/kg × 3, i.v. on days 1, 5 and 9) stood at 150%. Besides, in the data set on P-388 leukemia cells (dose g: 100 mg/kg × 3, i.v. on days 1, 5 and 9), the response vs control in vivo at 100 mg/kg is 205%. The compound further registered an LD50 in data set [1] of no less than 120 mg/kg.

In the case of `COC1C(O)C(C)OC(OC2C(Oc3cccc4c(OC(=O)CCNC=O)c5c(=O)oc6ccc(C)c7c(=O)oc(c34)c5c67)OC(C)C3OC(c4ccc(Cl)cc4Cl)OC32)C1O` (stereo not shown) [compound 93], the response vs control in vivo at 80 mg/kg with P-388 leukemia cells was 165%. The LD50 in data set [1] is no less than 80 mg/kg.

On to `COC1C(O)C(C)OC(OC2C(Oc3cccc4c(OC(=O)CCN5CCCC5)c5c(=O)oc6ccc(C)c7c(=O)oc(c34)c5c67)OC(C)C3OC(c4cccc(F)c4)OC32)C1O` (stereo not drawn) [Compound No. 34, 6-O-(β-1-pyrrolidinyl-propionyl)-3',4'-O-(m-fluorobenzylidene)-chartreusin phosphate], for which, in the data set with P-388 leukemia cells, the response vs control in vivo at 40 mg/kg amounted to 140%. Further, the median lethal dose (LD50) in data set [1] is no less than 30 mg/kg.

As to `CCC(C)C(=O)Oc1c2cccc(OC3OC(C)C4OC5(CCCCC5)OC4C3OC3OC(C)C(O)C(OC)C3O)c2c2oc(=O)c3c(C)ccc4oc(=O)c1c2c43` (stereo not shown) [compound 241], in the data set on P-388 leukemia cells, the response vs control in vivo at 80 mg/kg was determined as 135%. The compound further gave a median lethal dose (LD50) in data set [1] of no less than 80 mg/kg.

For `COC1C(O)C(C)OC(OC2C(Oc3cccc4c(OC(=O)CCCNC(=O)C(F)(F)F)c5c(=O)oc6ccc(C)c7c(=O)oc(c34)c5c67)OC(C)C3OC(c4ccccc4)OC32)C1O` (stereo not shown) [Compound No. 24], in the data set with P-388 leukemia cells, the response vs control in vivo at 20 mg/kg was 161% and the response vs control in vivo at 40 mg/kg came out at 223%. In data set [1], this compound showed an LD50 of no less than 40 mg/kg.

These data come from patent US4760136A, “Chartreusin derivatives and salts thereof” (Ishihara Sangyo Kaisha, Ltd., priority 1984, dated 1988).
